US5696082A, “Hydroxamic acid derivatives” (British Biotech Pharmaceuticals Limited, priority 1993, dated 1997)
pIC50: −log10 of the molar value.

Experiments:
stromelysin = stromelysin (Homo sapiens, UniProt P08254); assay: Stromelysin inhibition (hydrolysis of 14C acetylated casein); assay type: biochemical; settings: 37°, 16 hours, pH 7.5, 14C acetylated casein
Protocol: The potency of compounds of the invention as inhibitors of stromelysin was determined by the procedure of Cawston et al, (Biochem. J., 195, 159-165, 1981), hereby incorporated by reference, whereby a 1 mM solution of the compound being tested, or a dilution thereof, was incubated at 37° for 16 hours with stromelysin and ^14 C acetylate casein (buffered with 25 mM Hepes [Registered Trade Mark], pH 7.5 containing 5 mM CaCl2, 0.05% Brij [Registered Trade Mark] 35 and 0.02% NAN3). The casein was acetylated ^14 C casein prepared by the method of Cawston et al (ibid).

collagenase = collagenase (Homo sapiens, UniProt P03956); assay: Collagenase inhibition (hydrolysis of acetylated 14C collagen); assay type: biochemical; settings: 37° C., 16 hours, pH 7.5, acetylated 14C collagen
Protocol: The potency of compounds of the invention as inhibitors of collagenase was determined by the procedure of Cawston and Barrett, (Anal. Biochem., 99, 340-345, 1979), hereby incorporated by reference, whereby a 1 mM solution of the compound being tested, or a dilution thereof, was incubated at 37° C. for 16 hours with collagen and collagenase (buffered with 25 mM Hepes [Registered Trade Mark], pH 7.5 containing 5 mM CaCl2, 0.05% Brij [Registered Trade Mark] 35 and 0.02% NAN3). The collagen Was acetylated 14C collagen prepared by the method of Cawston and Murphy, (Methods in Enzymology, 80, 711, 1981), hereby incorporated by reference. The samples were centrifuged to sediment undigested collagen, and an aliquot of the radioactive supernatant removed for assay on a scintillation counter as a measure of hydrolysis.

Sequence of collagenase (P03956 100-469): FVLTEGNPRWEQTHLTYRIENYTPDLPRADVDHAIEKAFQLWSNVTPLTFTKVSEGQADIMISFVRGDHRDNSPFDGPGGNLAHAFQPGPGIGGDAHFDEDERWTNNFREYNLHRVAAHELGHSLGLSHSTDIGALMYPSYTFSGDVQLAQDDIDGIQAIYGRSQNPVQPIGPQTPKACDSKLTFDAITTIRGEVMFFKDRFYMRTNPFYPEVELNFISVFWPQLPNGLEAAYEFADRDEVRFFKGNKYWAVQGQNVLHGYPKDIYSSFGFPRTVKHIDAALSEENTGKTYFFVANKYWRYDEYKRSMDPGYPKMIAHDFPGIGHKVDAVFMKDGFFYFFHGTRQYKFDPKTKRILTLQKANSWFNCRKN
Sequence of stromelysin (P08254 100-477): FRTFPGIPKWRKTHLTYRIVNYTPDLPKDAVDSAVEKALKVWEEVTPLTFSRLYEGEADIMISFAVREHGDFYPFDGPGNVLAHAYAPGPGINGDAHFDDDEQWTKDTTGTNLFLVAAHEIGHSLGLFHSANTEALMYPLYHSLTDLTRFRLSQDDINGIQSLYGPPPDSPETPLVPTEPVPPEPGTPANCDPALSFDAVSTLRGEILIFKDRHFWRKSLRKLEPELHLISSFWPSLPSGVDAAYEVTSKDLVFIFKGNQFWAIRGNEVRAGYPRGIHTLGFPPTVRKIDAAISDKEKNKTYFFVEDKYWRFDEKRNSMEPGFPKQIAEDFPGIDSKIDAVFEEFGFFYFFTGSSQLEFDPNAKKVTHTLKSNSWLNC

## CNC(=O)[C@H](Cc1ccc(OCC(=O)N[C@@H]2O[C@H](CO)[C@@H](O)[C@H](O)[C@H]2NC(C)=O)cc1)NC(=O)[C@@H](CC(=O)NO)CC(C)C [Example 3, [4-(N-Hydroxyamino)-2R-isobutylsuccinyl]-O-[(2-acetamido-2-deoxy-β-D-glucopyranosyl)carboxamidomethyl]-L-tyrosine-N-methylamide]
stromelysin
  pIC50: 6.22
collagenase
  pIC50: 7.70
